Experimental data reported in article PMC7696666, “Epithelial Transfer of the Tyrosine Kinase Inhibitors Erlotinib, Gefitinib, Afatinib, Crizotinib, Sorafenib, Sunitinib, and Dasatinib: Implications for Clinical Resistance” (Cancers, 2020).
“And” between values parts separate entries of the source, which are not always exact repeats. Equal values may be shown once. Read-outs that look alike come from different tables or passages of the source.

Tests used:
HT29 cells = assay: Intracellular accumulation in HT29 colon cancer cells; assay type: in vitro ADME; conditions: after 24 h
Method: (§1) In order to get insight in the barrier role of the CaCo2 model system, we determined the intracellular accumulation of the TKISs at the end of the transport period, in normal monolayers of CaCo2 cells and in several other colon cancer cell lines. At the end of the transport period (both from the B->A and A->B incubations), cells were harvested and intracellular accumulation was determined.
In a different set of experiments, the CaCo2 cells were cultured in 6-wells plates as monolayers until semiconfluency. Two other colon cancer cell lines, WiDr and HT29, were cultured similarly. […]

CaCo2 cells = assay: Intracellular accumulation in CaCo2 Transwell cells at the end of the transport period; assay type: in vitro ADME, human; conditions: A->B incubation
Method: as §1
These cells were exposed to 20 μM of a TKI and were harvested after 2 h for determination of TKI concentration with LC-MS-MS. Values are means ± SEM for the number of experiments described in Figure 3, Figure 4, and Figure 5 and from three separate experiments for the monolayer CaCo2 and WiDr cells. […] A->B, mass transport from A to B; B->A, mass transport from B to A. For AFA, CRI, and DAS, no data in WiDr cells were available. […] The bar heights were not read.
In a different set of experiments, the CaCo2 cells were cultured in 6-wells plates as monolayers until semiconfluency. Two other colon cancer cell lines, WiDr and HT29, were cultured similarly. These cells were exposed for 2 h to various TKIs at concentrations varying from 50 nM to 20 µM). […] At the end of the incubation, cells were harvested, as described earlier, and extracted for drug analysis using LC-MS-MS as described above.

[1] = design: method as in PMID 30544701; conditions: method not given, ref [45], cited from earlier work
[2] = Disposition in blood compartments (whole blood, plasma, serum) of patients; assay type: in vivo, human; conditions: for blood plasma ratio: human, whole blood and plasma, oral
Method: Each individual sample was divided into two components; a 1 mL of tube of whole blood and 0.5 of plasma, each sample was stored at −20 °C until analysis could be performed. An additional serum sample was also obtained for patients treated with erlotinib. Blood samples for afatinib were obtained from NSCLC patients after 4 days receiving the standard daily dose of 40 mg.
Blood samples were taken at 1, 2, and 30 days after the start of treatment. Samples were separated from the whole blood into plasma, serum, and a packed red blood cell pellet (using the MESED apparatus). In a dose escalation study in order to determine whether a high pulsatile dose of sorafenib could be given to patients, we analyzed red blood cells and whole blood in 12 patients treated with sorafenib at total doses ranging from 2000 to 2800 mg daily. From these patients, samples were collected in 3 cycles.
For sunitinib, initially pharmacokinetic samples were collected over the first 24 h period from a single patient, with a renal cell carcinoma receiving a nonstandard treatment schedule (700 mg biweekly), in comparison to the standard 50 mg daily dose. Whole blood samples were divided into plasma, serum, and a packed red blood cell pellet. This cohort could later be extended with 6 patients treated with 800 mg sunitinib every 2 weeks enrolled in a clinical study to determine the tolerability of pulsatile sunitinib.
Five blood samples were taken over a 5-month period and divided into whole blood, an extracted 100 µL of red blood cells, and a plasma sample.

[3] = CaCo2 Transwell transport (Papp, efflux ratio); assay type: in vitro ADME, human; conditions: human; for efflux ratio at 180 min, 10 µM / efflux ratio at 180 min, 20 µM: read-out: Efflux Ratio (Papp B–A / Papp A–B); for efflux ratio at 180 min, 20 µM: Caco-2, 20 µM; for Papp A→B at 180 min, 10 µM / Papp A→B at 180 min, 20 µM: read-out: Papp (Apical Basolateral); for Papp B→A at 180 min, 10 µM / Papp B→A at 180 min, 20 µM: read-out: Papp (Basolateral Apical)
Method: (§2) The Transwell system was developed using the wild type Caco-2 cell line (passage 15–25) cultured in Dulbecco’s […] medium (DMEM) at standard conditions of 37 °C, 5% CO2, and 100% humidity as previously reported. […] To ensure a controlled growth environment the plate was covered with Breathe-Easier cell culture foil during the incubation period. The integrity of the developed monolayer was assessed by TEER before administration of compound solutions and after the final sampling stage.
(§3) The initial concentration of the drug was verified from a 20 µL sample taken immediately from the donor compartment after drug administration (t = 0).
(§4) The permeability coefficient (Papp) represents a measure for the efficiency of transport and was calculated with the following equation: Papp=ΔQ/Δt×V/C0⋅A where ∆Q/∆t = the rate of increase in drug concentration (accumulative mass transport) in the receiver compartment over time (µM/s), V = volume in the receiver compartment (mL), C0 = the initial concentration of drug in the donor compartment (µM), and A = the membrane surface area (cm^2).
(§5) To take into account the slightly nonlinear transfer characteristics of each compound, the rate of increase in drug concentration was determined for each time period and the Papp was then calculated. The average Papp was then determined with units of cm/s × 10^−6 or µm/s.
(§6) The efflux ratio was calculated according to the equation: Efflux ratio=PappB→A/PappA→B.
(§7) Statistical significance was determined using a simple Student’s t-test where a p value of <0.05 was considered significant.

CaCo2 monolayer [4] = assay: CaCo2 Transwell transport (Papp, efflux ratio); assay type: in vitro ADME, human; conditions: for Papp basolateral to apical: B–A
Method: as §2, §3, §4, §5, §6, §7

CaCo2 monolayer [5] = conditions: cited from earlier work
[6] = Caco-2, with erlotinib (co-incubated, concentration not stated), 10 µM, with erlotinib

| Structure (SMILES) | Intracellular accumulation in HT29 cells (HT29 cells) [pmol/μg protein] | Intracellular accumulation at the end of the transfer period (A->B) (CaCo2 cells) [pmol/μg protein] | Log P [1] | Log D (pH 5.5) [1] | Log D (pH 7.5) [1] | efflux ratio at 180 min, 10 µM ([3]; Caco-2, 10 µM) | efflux ratio at 180 min, 20 µM [3] | Papp A→B at 180 min, 10 µM ([3]; Caco-2, 10 µM) [×10⁻⁶ cm/s] | Papp B→A at 180 min, 10 µM ([3]; Caco-2, 10 µM) [×10⁻⁶ cm/s] | Papp A→B at 180 min, 20 µM ([3]; Caco-2) [×10⁻⁶ cm/s] | Papp B→A at 180 min, 20 µM ([3]; Caco-2) [×10⁻⁶ cm/s] | Total amount transferred apical to basolateral in 3 h (CaCo2 monolayer [4]; 20 µM, A–B) | Efflux Ratio (Papp B–A / Papp A–B) (CaCo2 monolayer [4]; 10 µM) | Papp apical to basolateral (CaCo2 monolayer [4]; 10 µM, A–B) [×10⁻⁶ cm/s] | Papp basolateral to apical (CaCo2 monolayer [4]; 10 µM) | Total amount transferred apical to basolateral in 3 h (CaCo2 monolayer [4]; 10 µM, A–B) | further results |
| --- | --- | --- | --- | --- | --- | --- | --- | --- | --- | --- | --- | --- | --- | --- | --- | --- | --- |
| CNC(=O)c1cc(Oc2ccc(NC(=O)Nc3ccc(Cl)c(C(F)(F)F)c3)cc2)ccn1 [Sorafenib, sorafenib] | 6 | 1.65 | 5.16 | 4.26 | 4.26 | 0.92 | 0.86 | 10.1 ± 9.5 | 9.3 ± 5.8 | 14.1 ± 11.5 | 11.4 ± 5.6 | approximately 950 pmol | – | – | – | – | blood plasma ratio ([2]; 2000–2800 mg cumulative daily dose, 12 patients, mean ± SD, read-out: Whole blood/plasma ratio): 1.2 ± 0.4; blood plasma ratio ([2]; clinical samples, read-out: Blood to plasma ratio): > 3; Fold increase of concentration in whole blood compared to plasma ([2]; low dose (400 mg twice daily), several patients): 2–4 fold; efflux ratio at 180 min, 10 µM [3, 6]: 0.71; Papp A→B at 180 min, 10 µM [3, 6]: 18.6 ± 13.2 ×10⁻⁶ cm/s; Papp B→A at 180 min, 10 µM [3, 6]: 13.3 ± 10.5 ×10⁻⁶ cm/s; Efflux Ratio (Papp B–A / Papp A–B) (CaCo2 monolayer [4]; 20 µM): 0.81; Efflux Ratio (Papp B–A / Papp A–B) (CaCo2 monolayer [4]; 20 µM, listed as sorafenib): 0.8 |
| CCN(CC)CCNC(=O)c1c(C)[nH]c(/C=C2\C(=O)Nc3ccc(F)cc32)c1C [Sunitinib, sunitinib] | 32.2 | 11.9 | 3.15 | −0.09 | 1.09 | – | 1.6 | – | – | 7.7 ± 4.6 | 12.6 ± 12.3 | 581.2 pmol | – | – | – | – | blood plasma ratio ([2]; 50 mg, standard treatment at 50 mg, read-out: Whole blood/plasma ratio): 0.7; blood plasma ratio ([2]; single dose 14-fold higher than standard, 7 patients, mean ± SD, read-out: Whole blood/plasma ratio): 2.6 ± 0.7; Whole blood concentration lower than plasma ([2]; standard dosing regimen): 40–50% |
| COc1cc2ncnc(Nc3ccc(F)c(Cl)c3)c2cc1OCCCN1CCOCC1 [Gefitinib, gefitinib] | – | 0.79 | 4.11 | 1.96 | 3.55 | 0.33 | – | 0.57 ± 0.43 | 0.19 ± 0.12 | – | – | – | 0.3 | 0.57 | 0.19 µm/s | – | Papp (Apical Basolateral) (CaCo2 monolayer [5]; 20 µM, A–B, previously reported, ref [39]): 0.38 ± 0.05 ×10^−6 cm/s; Papp (Basolateral Apical) (CaCo2 monolayer [5]; 20 µM, B–A, previously reported, ref [39]): 0.39 ± 0.038 ×10^−6 cm/s; Efflux Ratio (Papp B–A / Papp A–B) (CaCo2 monolayer [5]; 20 µM, previously reported, ref [39]): 1.0; Efflux ratio after treatment with NaN3 (CaCo2 monolayer [5]; after NaN3, ref [38],[39]): 0.46 |
| CN(C)C/C=C/C(=O)Nc1cc2c(Nc3ccc(F)c(Cl)c3)ncnc2cc1O[C@H]1CCOC1 [Afatinib, afatinib] | – | 0.45 | 3.59 | 1.00 | 2.87 | > 5 | – | 1.5 ± 2.2 | 10.9 ± 5 | – | – | – | 7.3 | 1.48 | 10.9 ×10⁻⁶ cm/s | 90 pmol | Papp apical to basolateral (CaCo2 monolayer [4]; 10 µM, A–B, listed as afatinib): 1.5 ×10⁻⁶ cm/s; Efflux Ratio (Papp B–A / Papp A–B) (CaCo2 monolayer [4]; 10 µM, listed as afatinib): 7.34 and > 6 |
| C[C@@H](Oc1cc(-c2cnn(C3CCNCC3)c2)cnc1N)c1c(Cl)ccc(F)c1Cl [Crizotinib, crizotinib] | – | 2.11 | 4.73 | 0.30 | 1.80 | > 5 | – | – | 7.7 ± 5.5 | – | – | – | – | – | – | nothing could be detected | Whole blood concentration higher than plasma ([2]; standard dose (250 mg twice daily), single patient): 30%; Papp (Apical Basolateral) (CaCo2 monolayer [4]; 10 µM, A–B): Unmeasurable; Effect of exposure on CaCo2 cells and membrane (CaCo2 monolayer [4]; 20 µM exposure): caused cell death and disruption of the membrane; A–B mass transport at 20 µM, fold lower than B–A mass transport at 10 µM (CaCo2 monolayer [4]; A–B 20 µM vs B–A 10 µM): 20 fold |
